Series [1] concerns Jurkat. Kind of series: Induction of cell proliferation in human Jurkat T cells co-cultured with MDA-MB-231 cells assessed as increase in cell viability at < 5 uM after 48 hrs by CFSE staining based flow cytometric analysis. The class given is functional. (In general: Flow cytometry measures light scatter and fluorescence of single cells or particles in a stream.)
The test system of another series is MCF7. Kind of series: Antiproliferative activity against human MCF7 cells assessed as reduction in […]. The class given is functional, cell-based.
The subject of the next series is ZR-75-1. The series is described as follows: Antiproliferative activity against human ZR-75-1 cells assessed as reduction in […]. The class given is functional, cell-based.
Another series deals with SK-BR-3. The series is described as follows: Antiproliferative activity against human SK-BR-3 cells assessed as reduction in […]. In kind it is functional, cell-based.
A short description of series [2]: Cytotoxicity against T cell (unknown origin). The class given is toxicity, cell-based, Homo sapiens. The following applies: T cells.
Series [3] relates to Jurkat. The series is described as follows: Cytotoxicity against human Jurkat T cells co-cultured with MDA-MB-231 cells assessed as reduction in cell viability at 50 uM after 48 hrs by CFSE staining based flow cytometric analysis. In kind it is toxicity.
For series [4], the system named is Jurkat. The series is described as follows: Induction of anti-CD3/CD28 antibodies-stimulated human Jurkat T cell activation co-cultured with MDA-MB-231 cells assessed as increase IFN-gamma protein expression in CD8+ cells at 5 uM after 48 hrs by flow cytometric analysis. In kind it is functional, cell-based.
In series [5] the test system is Jurkat. Kind of series: Induction of anti-CD3/CD28 antibodies-stimulated human Jurkat T cell activation co-cultured with MDA-MB-231 cells assessed as increase granzyme B protein expression in CD8+ cells at 5 uM after 48 hrs by flow cytometric analysis. The class given is functional, cell-based.
Series [6] concerns Jurkat. The series is described as follows: Induction of anti-CD3/CD28 antibodies-stimulated human Jurkat T cell activation co-cultured with MDA-MB-231 cells assessed as increase TNFalpha protein expression in CD8+ cells at 5 uM after 48 hrs by flow cytometric analysis. In kind it is functional, cell-based.
Series [7] concerns Jurkat. Kind of series: Induction of anti-CD3/CD28 antibodies-stimulated human Jurkat T cell activation co-cultured with MDA-MB-231 cells assessed as increase IFN-gamma protein expression in CD8+ cells in presence of PMA and ionomycin at 5 uM after 48 hrs by flow cytometric analysis. The class given is functional, cell-based.
For series [8], the system named is Jurkat. Kind of series: Induction of anti-CD3/CD28 antibodies-stimulated human Jurkat T cell activation co-cultured with MDA-MB-231 cells assessed as increase granzyme B protein expression in CD8+ cells at 5 uM in presence of PMA and ionomycin after 48 hrs by flow cytometric analysis. In kind it is functional, cell-based.
For series [9], the system named is Jurkat. The series is described as follows: Induction of anti-CD3/CD28 antibodies-stimulated human Jurkat T cell activation co-cultured with MDA-MB-231 cells assessed as increase TNFalpha protein expression in CD8+ cells at 5 uM in presence of PMA and ionomycin after 48 hrs by flow cytometric analysis. In kind it is functional, cell-based.
For series [10], the system named is Jurkat. Kind of series: Cytotoxicity against human Jurkat T cells co-cultured with MDA-MB-231 cells assessed as reduction in cell viability at 5 to 10 uM after 48 hrs by CFSE staining based flow cytometric analysis. In kind it is toxicity. The note with it: dose 5-10 µM.
Series [11] relates to MC-38. The series is described as follows: Antitumour activity against mouse MC38 cells implanted in C57BL6 mouse assessed reduction in tumor size at 25 mg/kg, IG for 16 days. The note with it: time 16.0 day. In kind it is functional, organism-based.
Series [12] relates to MC-38. The series is described as follows: Antitumour activity against mouse MC38 cells implanted in C57BL6 mouse assessed reduction in tumor weight at 25 mg/kg, IG for 16 days. The class given is functional, organism-based. The note with it: time 16.0 day.
Series [13] relates to MC-38. Kind of series: Antitumour activity against mouse MC38 cells implanted in C57BL6 mouse assessed increase in CD4+CD8- cells at 25 mg/kg, IG for 16 days by flow cytometric analysis. The note with it: time 16.0 day. In kind it is functional, organism-based.
Series [14] deals with MC-38. The series is described as follows: Antitumour activity against mouse MC38 cells implanted in C57BL6 mouse assessed increase in CD4+CD8-Tim3+ cells at 25 mg/kg, IG for 16 days by flow cytometric analysis. In kind it is functional, organism-based. The following applies: time 16.0 day.
Series [15] has as its system MC-38. Kind of series: Antitumour activity against mouse MC38 cells implanted in C57BL6 mouse assessed reduction in tumor size at 10 to 25 mg/kg, IG for 16 days. In kind it is functional, organism-based. The following applies: dose 10-25 mg/kg, time 16.0 day.
The test system of series [16] is MC-38. Kind of series: Antitumour activity against mouse MC38 cells implanted in C57BL6 mouse assessed reduction in tumor weight at 10 to 25 mg/kg, IG for 16 days. The class given is functional, organism-based. The following applies: dose 10-25 mg/kg, time 16.0 day.
The subject of series [17] is MC-38. The series is described as follows: Antitumour activity against mouse MC38 cells implanted in C57BL6 mouse assessed reduction in tumor growth at 10 to 25 mg/kg, IG for 16 days by PCNA staining based immunohistochemical analysis. The class given is functional, organism-based. The following applies: dose 10-25 mg/kg, time 16.0 day.
Series [18] concerns MC-38. The series is described as follows: Antitumour activity against mouse MC38 cells implanted in C57BL6 mouse assessed reduction in tumor growth at 10 to 25 mg/kg, IG for 16 days by Ki67 staining based immunohistochemical analysis. The class given is functional, organism-based. The following applies: dose 10-25 mg/kg, time 16.0 day.
Series [19] relates to MC-38. The series is described as follows: Antitumour activity against mouse MC38 cells implanted in C57BL6 mouse assessed decrease in CD4+CD8-PD1+ cells at 10 to 25 mg/kg, IG for 16 days by flow cytometric analysis. The class given is functional, organism-based. The following applies: dose 10-25 mg/kg, time 16.0 day.
Series [20] concerns MC-38. Kind of series: Antitumour activity against mouse MC38 cells implanted in C57BL6 mouse assessed increase in CD4+CD8-Tim3+ cells at 10 to 25 mg/kg, IG for 16 days by flow cytometric analysis. The class given is functional, organism-based. The note with it: dose 10-25 mg/kg, time 16.0 day.
The test system of series [21] is MC-38. The series is described as follows: Antitumour activity against mouse MC38 cells implanted in C57BL6 mouse assessed increase in CD4-CD8+Tim3+ cells at 10 to 25 mg/kg, IG for 16 days by flow cytometric analysis. The following applies: dose 10-25 mg/kg, time 16.0 day. In kind it is functional, organism-based.
Series [22] deals with MC-38. The series is described as follows: Antitumour activity against mouse MC38 cells implanted in C57BL6 mouse assessed increase in CD4-CD8+PD-1+ cells at 10 to 25 mg/kg, IG for 16 days by flow cytometric analysis. The class given is functional, organism-based. The note with it: dose 10-25 mg/kg, time 16.0 day.

From ChEMBL document CHEMBL5143556, “Molecular hybridization used to design and synthesize neo-tanshinlactone derivatives as PD-1/PD-L1 inhibitors” (Bioorg Med Chem, 2022) come the findings set out here.

Molecules are shown by their SMILES. Calls of active or inactive are those of the source. The calls are words filed in the database; no cut-off is given here.

Usually EC50 stands for the concentration at which the effect is half-maximal.

`Cc1c(COc2ccc(CN3Cc4ccccc4CC3C(=O)O)c(Oc3cc(=O)oc4ccccc34)c2)cccc1-c1ccccc1` (racemic): the result in the series on Jurkat [1] was Active.
In the case of `CCc1cccc2c1ccc1c3occ(C)c3c(=O)oc21`, the values for the EC50 with MCF7, with ZR-75-1 and with SK-BR-3 were 0.45 µg/mL, 0.18 µg/mL and 0.1 µg/mL, respectively.
`Cc1c(COc2cc(OCc3cccc(C#N)c3)c(CN3C[C@@H](O)C[C@H]3C(=O)O)cc2Cl)cccc1-c1ccc2c(c1)OCCO2` had an EC50 in series [2] of 1.4 nM.
Take `O=C(O)[C@@H]1Cc2ccccc2CN1Cc1ccc(OCc2cccc(-c3ccccc3)c2Br)cc1Oc1cc(=O)oc2c1ccc1ccccc12`: the Activity result with Jurkat [3] was “Toxic”. Further, the result in the series with Jurkat [4], in the series with Jurkat [5], in the series with Jurkat [6], in the series with Jurkat [7], in the series with Jurkat [8] and in the series on Jurkat [9] was Active.
The molecule `COc1nc(OCc2cccc(-c3ccccc3)c2C)ccc1CNCCNC(C)=O` gave an EC50 in series [2] of 11 nM. The Activity result in the series on Jurkat [10] is listed as “Non-Toxic”. Besides, the outcome with Jurkat [4], with Jurkat [5], in the series with Jurkat [6], with Jurkat [7], in the series on Jurkat [8] and with Jurkat [9] was Active. Further, the result in the series on MC-38 [11], in the series on MC-38 [12], in the series on MC-38 [13] and with MC-38 [14] was Active.
As for `Cc1c(COc2ccc(CN3Cc4ccccc4C[C@@H]3C(=O)O)c(Oc3cc(=O)oc4c3ccc3ccccc34)c2)cccc1-c1ccccc1`, the result with Jurkat [1], in the series with Jurkat [4], in the series with Jurkat [5], in the series with Jurkat [6], in the series on Jurkat [7] and in the series with Jurkat [8] was Active. The result with Jurkat [9], with MC-38 [15], in the series on MC-38 [16], with MC-38 [19], in the series on MC-38 [20] and in the series on MC-38 [21] was Active. Also, the result in the series with MC-38 [22] was Active. In addition, the Activity entry in the series on Jurkat [3] is given as “Toxic”. Moreover, the TGI result in the series on MC-38 [17] and with MC-38 [18] was “Active” throughout.
